Test results published in the NIST ThermoML archive (doi:10.1021/je060271a).

Conditions: 343.15 K, Liquid, Vibrating tube method

CCCCCCCC(=O)OCC(COC(=O)CCCCCCC)(COC(=O)CCCCCCC)COC(=O)CCCCCCC [pentaerythritol tetraoctanoate]
Conditions	mass density [kg/m3]
22002 kPa	941.5
22028 kPa	941.4
22054 kPa	941.3
22085 kPa	941.4
22111 kPa	941.4
22142 kPa	941.5
22168 kPa	941.4
22195 kPa	941.6
22221 kPa	941.4
22248 kPa	941.5
22280 kPa	941.6
22307 kPa	941.6
22338 kPa	941.5
22365 kPa	941.8
22392 kPa	941.7
22424 kPa	941.7
22451 kPa	941.7
22478 kPa	941.5
22510 kPa	941.7
22537 kPa	941.7
22564 kPa	941.8
22599 kPa	941.9
22626 kPa	941.8
22654 kPa	941.9
22682 kPa	941.9
22709 kPa	941.7
22742 kPa	941.8
22770 kPa	941.8
22798 kPa	941.8
22831 kPa	942
22858 kPa	941.8
22892 kPa	941.9
22920 kPa	941.9
22949 kPa	942
23008 kPa	942
23042 kPa	941.9
23070 kPa	942.1
23098 kPa	942.1
23132 kPa	942.1
23161 kPa	942.1
23190 kPa	942.1
23224 kPa	942.1
23253 kPa	942.1
23281 kPa	942.2
23316 kPa	942.2
23344 kPa	942.1
23374 kPa	942.3
23409 kPa	942.2
23438 kPa	942.4
23468 kPa	942.1
23497 kPa	942.3
23532 kPa	942.2
23562 kPa	942.4
23597 kPa	942.4
23627 kPa	942.3
23656 kPa	942.5
23686 kPa	942.4
23722 kPa	942.5
23753 kPa	942.5
23777 kPa	942.5
23819 kPa	942.5
23849 kPa	942.6
23886 kPa	942.6
23916 kPa	942.5
23946 kPa	942.5
23984 kPa	942.5
24014 kPa	942.6
24045 kPa	942.8
24076 kPa	942.6
24113 kPa	942.7
24144 kPa	942.6
24182 kPa	942.7
24245 kPa	942.8
24283 kPa	942.8
24314 kPa	942.8
24345 kPa	942.8
24377 kPa	942.9
24415 kPa	942.8
24447 kPa	942.9
24480 kPa	942.9
24518 kPa	943
24550 kPa	942.9
24589 kPa	943
24622 kPa	943.1
24655 kPa	943.1
24688 kPa	943.1
24721 kPa	943
24761 kPa	943.1
24794 kPa	943.1
24828 kPa	943.1
24867 kPa	943.1
24894 kPa	943.3
24934 kPa	943.3
24961 kPa	943.1
24994 kPa	943.2
25028 kPa	943.2
25069 kPa	943.3
25097 kPa	943.2
25138 kPa	943.4
25185 kPa	943.5
25226 kPa	943.3
25260 kPa	943.3
25294 kPa	943.5
25335 kPa	943.5
25370 kPa	943.5
25404 kPa	943.5
25445 kPa	943.6
25480 kPa	943.5
25523 kPa	943.6
25553 kPa	943.7
25596 kPa	943.5
25632 kPa	943.8
25667 kPa	943.6
25703 kPa	943.7
25746 kPa	943.8
25781 kPa	943.7
25824 kPa	943.7
25860 kPa	943.7
25896 kPa	943.8
25933 kPa	944
25977 kPa	943.9
26014 kPa	943.9
26054 kPa	943.9
26091 kPa	943.9
26135 kPa	943.9
26172 kPa	944
26210 kPa	944.2
26247 kPa	944.1
26292 kPa	944.1
26329 kPa	944.1
26367 kPa	944.2
26412 kPa	944.1
26449 kPa	944.1
26495 kPa	944.1
26534 kPa	944.1
26573 kPa	944
26612 kPa	944.2
26696 kPa	944.4
26735 kPa	944.4
26781 kPa	944.3
26820 kPa	944.4
26859 kPa	944.4
26906 kPa	944.4
26945 kPa	944.4
26985 kPa	944.4
27032 kPa	944.6
27072 kPa	944.4
27113 kPa	944.7
27160 kPa	944.5
27200 kPa	944.7
27241 kPa	944.7
27290 kPa	944.7
27331 kPa	944.6
27371 kPa	944.7
27412 kPa	944.8
27462 kPa	944.7
27503 kPa	944.8
27544 kPa	944.8
27594 kPa	944.9
27637 kPa	944.8
27680 kPa	944.9
27721 kPa	944.9
27772 kPa	945
27815 kPa	945.1
27857 kPa	945
27909 kPa	945
27951 kPa	945
28003 kPa	945
28046 kPa	945.1
28089 kPa	945.1
28141 kPa	945.3
28185 kPa	945.2
28231 kPa	945.3
28277 kPa	945.4
28332 kPa	945.4
28378 kPa	945.4
28426 kPa	945.4
28478 kPa	945.5
28513 kPa	945.4
28545 kPa	945.5
28583 kPa	945.4
28615 kPa	945.4
28647 kPa	945.5
28680 kPa	945.5
28720 kPa	945.7
28753 kPa	945.6
28786 kPa	945.6
28818 kPa	945.8
28858 kPa	945.7
28890 kPa	945.7
28923 kPa	945.7
28963 kPa	945.7
28996 kPa	945.8
29036 kPa	945.8
29070 kPa	945.9
29104 kPa	945.8
29138 kPa	945.9
29179 kPa	945.9
29207 kPa	945.8
29247 kPa	946
29281 kPa	945.9
29321 kPa	945.9
29355 kPa	946
29389 kPa	946
29424 kPa	946
29465 kPa	946
29500 kPa	946
29534 kPa	946.1
29570 kPa	946.1
29612 kPa	946.1
29648 kPa	946.2
29685 kPa	946.2
29720 kPa	946.2
29754 kPa	946.3
29797 kPa	946.2
29832 kPa	946.2
29874 kPa	946.2
29910 kPa	946.3
29945 kPa	946.3
29987 kPa	946.4
30024 kPa	946.4
30060 kPa	946.5
30096 kPa	946.4
30139 kPa	946.4
30175 kPa	946.5
30212 kPa	946.4
30255 kPa	946.6
30291 kPa	946.5
30327 kPa	946.7
30371 kPa	946.5
30525 kPa	946.7
30562 kPa	946.8
30607 kPa	946.7
30646 kPa	946.7
30682 kPa	946.8
30727 kPa	946.8
30764 kPa	946.9
30802 kPa	946.8
30847 kPa	946.8
30885 kPa	946.9
30923 kPa	947
31006 kPa	946.9
31045 kPa	947
31091 kPa	947
31130 kPa	947
31169 kPa	947.2
31208 kPa	947.1
31255 kPa	947.1
31294 kPa	947.2
31341 kPa	947.1
31380 kPa	947.2
31411 kPa	947.1
31459 kPa	947.2
31506 kPa	947.2
31538 kPa	947.4
31586 kPa	947.3
31633 kPa	947.5
31674 kPa	947.4
31717 kPa	947.3
31758 kPa	947.5
31807 kPa	947.4
31848 kPa	947.5
31898 kPa	947.5
31942 kPa	947.5
31985 kPa	947.6
32036 kPa	947.6
32074 kPa	947.7
32104 kPa	947.6
32141 kPa	947.6
32172 kPa	947.8
32204 kPa	947.8
32242 kPa	947.7
32273 kPa	947.7
32305 kPa	947.9
32342 kPa	947.7
32374 kPa	947.9
32405 kPa	947.8
32443 kPa	947.8
32475 kPa	947.8
32507 kPa	947.8
32545 kPa	947.9
32577 kPa	947.9
32610 kPa	948
32644 kPa	948
32671 kPa	948
32710 kPa	948
32736 kPa	948.1
32762 kPa	948.1
32840 kPa	948
32885 kPa	948.1
32925 kPa	948
32958 kPa	948.2
32991 kPa	948.3
33030 kPa	948.3
33064 kPa	948.3
33099 kPa	948.3
